We go through 28 molecules from patent publication US20090233943A9, “NEW COMPOUNDS 835” (priority 2007, published 2009).

What is called IC50 is the concentration that gives 50% inhibition.

Counter-ions that a name gives are not always drawn.

T1 sequence (P56817 22-460): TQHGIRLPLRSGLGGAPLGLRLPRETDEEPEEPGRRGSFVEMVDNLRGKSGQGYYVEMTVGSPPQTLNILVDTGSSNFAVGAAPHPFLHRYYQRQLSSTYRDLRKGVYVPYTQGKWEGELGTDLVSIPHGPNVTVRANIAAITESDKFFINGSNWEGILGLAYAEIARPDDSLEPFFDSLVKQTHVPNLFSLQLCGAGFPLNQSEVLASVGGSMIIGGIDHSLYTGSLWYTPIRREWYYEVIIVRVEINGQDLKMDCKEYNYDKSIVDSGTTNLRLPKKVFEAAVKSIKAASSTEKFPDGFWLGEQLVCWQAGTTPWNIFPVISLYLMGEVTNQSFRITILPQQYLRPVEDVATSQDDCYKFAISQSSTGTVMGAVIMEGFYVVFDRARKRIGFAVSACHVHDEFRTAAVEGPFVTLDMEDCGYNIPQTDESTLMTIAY

This test addresses T1, human β-Secretase (soluble part, AA 1-AA 460, sBACE-Fc) (Homo sapiens, UniProt P56817).
T1 construct: The soluble part of the human β-Secretase (AA 1-AA 460) was cloned; made in house
The test is described as follows: TR-FRET assay (β-secretase enzyme). The test is classed as biochemical. As to the method:
The enzyme used in the IGEN Cleavage-, Fluorescent-, TR-FRET- and BiaCore assays is described as follows:
The soluble part of the human β-Secretase (AA 1-AA 460) was cloned into the ASP2-Fc10-1-IRES-GFP-neoK mammalian expression vector. The gene was fused to the Fc domain of IgG1 (affinity tag) and stably cloned into SEEK 293 cells. Purified sBACE-Fc is stored in Tris buffer, pH 9.2 and has a purity of 95%.
Enzyme was diluted to 6 μg/mL and the substrate (Europium)[…](Qsy7) to 200 nM in reaction buffer (NaAcetate, chaps, triton x-100, EDTA pH 4.5). Compounds were diluted to the desired concentration in dimethyl sulfoxide (final dimethyl sulfoxide concentration in assay is 5%). […] Enzyme (9 μL) and 1 μL of compound in dimethyl sulfoxide was added to the plate, mixed and pre-incubated for 10 min. Substrate (10 μL) was added and the reaction proceeded in the dark for 15 min at RT. The reaction was stopped with the addition of 7 μL NaAcetate, pH 9. The fluorescence of the product was measured on a Victor II plate reader with an excitation wavelength of 340 nm and an emission wavelength of 615 nm. […] The dimethyl sulfoxide control defined the 100% activity level and 0% activity was defined by exclusion of the enzyme (using reaction buffer instead).
(In general: In TR-FRET formats the signal depends on donor and acceptor labels being close together.)
`CN1C(=O)C(c2ccc(S(F)(F)(F)(F)F)cc2)(c2ccc(F)c(-c3cncc(F)c3)c2)N=C1N` (stereo not shown) [Example 27, 2-Amino-5-[4-fluoro-3-(5-fluoropyridin-3-yl)phenyl]-3-methyl-5-[4-(pentafluoro-λ^6-sulfanyl)phenyl]-3,5-dihydro-4H-imidazol-4-one 0.25 acetate] returned an IC50 of 81 nM. Under `CN1C(=O)C(c2ccc(S(F)(F)(F)(F)F)cc2)(c2ccc(F)c(-c3cccnc3F)c2)N=C1N` (stereo not shown) [Example 28, 2-amino-5-[4-fluoro-3-(2-fluoropyridin-3-yl)phenyl]-3-methyl-5-[4-(pentafluoro-λ^6-sulfanyl)phenyl]-3,5-dihydro-4H-imidazol-4-one 0.25 acetate] stands 69 nM; under `COc1ccc(F)c(-c2cccc(C3(c4ccc(S(F)(F)(F)(F)F)cc4)N=C(N)N(C)C3=O)c2)c1F` (stereo not shown) [Example 47, 2-amino-5-(2′,6′-difluoro-3′-methoxybiphenyl-3-yl)-3-methyl-5-[4-(pentafluoro-λ^6-sulfanyl)phenyl]-3,5-dihydro-4H-imidazol-4-one], 38 nM. The figure for `CN1C(=O)C(c2ccc(S(F)(F)(F)(F)F)cc2)(c2cccc(-c3cscn3)c2)N=C1N` (stereo not shown) [Example 43, 2-amino-3-methyl-5-[4-(pentafluoro-λ^6-sulfanyl)phenyl]-5-[3-(1,3-thiazol-4-yl)phenyl]-3,5-dihydro-4H-imidazol-4-one] is 673 nM; for `CN1C(=O)C(c2ccc(S(F)(F)(F)(F)F)cc2)(c2cccc(-c3cncnc3)c2)N=C1N` (stereo not shown) [Example 32, 2-amino-3-methyl-5-[4-(pentafluoro-λ^6-sulfanyl)phenyl]-5-(3-pyrimidin-5-ylphenyl)-3,5-dihydro-4H-imidazol-4-one] it is 55 nM; for `CN1C(=O)C(c2cccc(S(F)(F)(F)(F)F)c2)(c2ccc(F)c(-c3cncnc3)c2)N=C1N` (stereo not shown) [Example 48, 2-Amino-5-(4-fluoro-3-pyrimidin-5-ylphenyl)-3-methyl-5-[3-(pentafluoro-λ^6-sulfanyl)phenyl]-3,5-dihydro-4H-imidazol-4-one 0.25 acetate] it is 487 nM. The figure for `COc1cncc(-c2cc(C3(c4ccc(S(F)(F)(F)(F)F)cc4)N=C(N)N(C)C3=O)ccc2F)c1` (stereo not shown) [Example 25, 2-Amino-5-[4-fluoro-3-(5-methoxypyridin-3-yl)phenyl]-3-methyl-5-[4-(pentafluoro-λ^6-sulfanyl)phenyl]-3,5-dihydro-4H-imidazol-4-one] is 30 nM; for `CN1C(=O)C(c2cccc(S(F)(F)(F)(F)F)c2)(c2ccc(F)c(-c3cccnc3)c2)N=C1N` (stereo not shown) [Example 50, 2-Amino-5-(4-fluoro-3-pyridin-3-ylphenyl)-3-methyl-5-[3-(pentafluoro-λ^6-sulfanyl)phenyl]-3,5-dihydro-4H-imidazol-4-one] it is 317 nM. `COc1cccc(-c2cccc(C3(c4ccc(S(F)(F)(F)(F)F)cc4)N=C(N)N(C)C3=O)c2)c1F` (single isomer, unassigned) [37 isomer 2]: the IC50 came to 2630 nM. The figure for `CN1C(=O)C(c2ccc(S(F)(F)(F)(F)F)cc2)(c2ccc(F)c(-c3cnccn3)c2)N=C1N` (stereo not shown) [Example 30, 2-amino-5-(4-fluoro-3-pyrazin-2-ylphenyl)-3-methyl-5-[4-(pentafluoro-λ^6-sulfanyl)phenyl]-3,5-dihydro-4H-imidazol-4-one 0.75 acetate] is 124 nM; for `COc1cccc(-c2cccc(C3(c4ccc(S(F)(F)(F)(F)F)cc4)N=C(N)N(C)C3=O)c2)c1F` (single isomer, unassigned) [37 isomer 1] it is 49 nM. The figure for `COc1cccc(-c2cc(C3(c4ccc(N=S(C)(C)=O)cc4)N=C(N)N(C)C3=O)ccc2F)c1` (stereo not shown) [Example 5, 2-Amino-5-(4-{[dimethyl(oxido)-λ^4-sulfanylidene]amino}phenyl)-5-(6-fluoro-3′-methoxybiphenyl-3-yl)-3-methyl-3,5-dihydro-4H-imidazol-4-one hydrochloride] is 756 nM. The figure for `CN1C(=O)C(c2ccc(S(F)(F)(F)(F)F)cc2)(c2cccc(-c3cccnc3)c2)N=C1N` (stereo not shown) [Example 33, 2-amino-3-methyl-5-[4-(pentafluoro-λ^6-sulfanyl)phenyl]-5-(3-pyridin-3-ylphenyl)-3,5-dihydro-4H-imidazol-4-one] is 52 nM; for `CN1C(=O)C(c2ccc(S(F)(F)(F)(F)F)cc2)(c2ccc(F)c(-c3cnccc3C#N)c2)N=C1N` (stereo not shown) [Example 29, 3-(5-{2-amino-1-methyl-5-oxo-4-[4-(pentafluoro-λ^6-sulfanyl)phenyl]-4,5-dihydro-1H-imidazol-4-yl}-2-fluorophenyl)isonicotinonitrile 0.25 acetate] it is 81 nM. For `COc1ccc(F)c(-c2cccc(C3(c4ccc(S(F)(F)(F)(F)F)cc4)N=C(N)N(C)C3=O)c2)c1` (stereo not shown) [Example 38, 2-amino-5-(2′-fluoro-5′-methoxybiphenyl-3-yl)-3-methyl-5-[4-(pentafluoro-λ^6 sulfanyl)phenyl]-3,5-dihydro-4H-imidazol-4-one], it took 71 nM to reach half-maximal inhibition (IC50). The figure for `CN1C(=O)C(c2ccc(S(F)(F)(F)(F)F)cc2)(c2cccc(-c3cccnc3F)c2)N=C1N` (stereo not shown) [Example 31, 2-amino-5-[3-(2-fluoropyridin-3-yl)phenyl]-3-methyl-5-[4-(pentafluoro-λ^6-sulfanyl)phenyl]-3,5-dihydro-4H-imidazol-4-one] is 83 nM; for `CN1C(=O)C(c2ccc(S(F)(F)(F)(F)F)cc2)(c2ccc(F)c(-c3cncnc3)c2)N=C1N` (stereo not shown) [Example 22, 2-Amino-5-(4-fluoro-3-pyrimidin-5-ylphenyl)-3-methyl-5-[4-(pentafluoro-λ^6-sulfanyl)phenyl]-3,5-dihydro-4H-imidazol-4-one] it is 49 nM; for `CN1C(=O)C(c2ccc(S(F)(F)(F)(F)F)cc2)(c2ccc(F)c(-c3cncc(C#N)c3)c2)N=C1N` (stereo not shown) [Example 23, 5-(5-{2-Amino-1-methyl-5-oxo-4-[4-(pentafluoro-A-sulfanyl)phenyl]-4,5-dihydro-1H-imidazol-4-yl}-2-fluorophenyl)nicotinonitrile 0.25 acetate] it is 101 nM. Under `CN1C(=O)C(c2ccc(S(F)(F)(F)(F)F)cc2)(c2cccc(-c3cccc(C#N)c3)c2)N=C1N` (stereo not shown) [Example 41, 3′-{2-amino-1-methyl-5-oxo-4-[4-(pentafluoro-λ^6-sulfanyl)phenyl]-4,5-dihydro-1H-imidazol-4-yl}biphenyl-3-carbonitrile] stands 143 nM.

For the molecule `CN1C(=O)C(c2ccc(S(F)(F)(F)(F)F)cc2)(c2cccc(-c3cc(C#N)ccc3F)c2)N=C1N` (stereo not shown) [Example 39, 2-amino-5-(2′-fluoro-5′-carbonitrilebiphenyl-3-yl)-3-methyl-5-[4-(pentafluoro-λ^6-sulfanyl)phenyl]-3,5-dihydro-4H-imidazol-4-one], the concentration for half-maximal inhibition (IC50) is 356 nM. The figure for `COc1cccc(-c2cccc(C3(c4ccc(S(F)(F)(F)(F)F)cc4)N=C(N)N(C)C3=O)c2)c1` (stereo not shown) [Example 40, 2-amino-5-(3′-methoxybiphenyl-3-yl)-3-methyl-5-[4-(pentafluoro-λ^6-sulfanyl)phenyl]-3,5-dihydro-4H-imidazol-4-one] is 81 nM; for `CN1C(=O)C(c2ccc(S(F)(F)(F)(F)F)cc2)(c2cccc(-c3cncc(F)c3)c2)N=C1N` (stereo not shown) [Example 35, 2-amino-5-[3-(5-fluoropyridin-3-yl)phenyl]-3-methyl-5-[4-(pentafluoro-λ^6 sulfanyl)phenyl]-3,5-dihydro-4H-imidazol-4-one] it is 68 nM; for `CN1C(=O)C(c2ccc(S(F)(F)(F)(F)F)cc2)(c2ccc(F)c(-c3cccnc3)c2)N=C1N` (stereo not shown) [Example 24, 2-Amino-5-(4-fluoro-3-pyridin-3-ylphenyl)-3-methyl-5-[4-(pentafluoro-λ^6-sulfanyl)phenyl]-3,5-dihydro-4H-imidazol-4-one] it is 53 nM. Under `CN1C(=O)C(c2ccc(S(F)(F)(F)(F)F)cc2)(c2cccc(-c3cnccc3C#N)c2)N=C1N` (stereo not shown) [Example 34, 3-(3-{2-amino-1-methyl-5-oxo-4-[4-(pentafluoro-λ^6-sulfanyl)phenyl]-4,5-dihydro-1H-imidazol-4-yl}phenyl)pyridine-4-carbonitrile] stands 467 nM; under `CN1C(=O)C(c2ccc(S(F)(F)(F)(F)F)cc2)(c2cccc(-c3cn(C)cn3)c2)N=C1N` (stereo not shown) [Example 44, 2-amino-3-methyl-5-[3-(1-methyl-1H-imidazol-4-yl)phenyl]-5-[4-(pentafluoro-λ^6-sulfanyl)phenyl]-3,5-dihydro-4H-imidazol-4-one], 643 nM.

`COc1cncc(-c2cc(C3(c4ccc(S(F)(F)(F)(F)F)cc4)N=C(N)N(C)C3=O)ccc2F)c1` (single isomer, unassigned) [26 isomer 1] gave an IC50 of 13 nM. As for `CN1C(=O)C(c2cccc(S(F)(F)(F)(F)F)c2)(c2ccc(F)c(-c3cncc(F)c3)c2)N=C1N` (stereo not shown) [Example 52, 2-Amino-5-[4-fluoro-3-(5-fluoropyridin-3-yl)phenyl]-3-methyl-5-[3-(pentafluoro-λ^6-sulfanyl)phenyl]-3,5-dihydro-4H-imidazol-4-one], the IC50 came to 1190 nM. As for `CN1C(=O)C(c2ccc(S(F)(F)(F)(F)F)cc2)(c2cccc(-c3cccc(Cl)c3F)c2)N=C1N` (stereo not shown) [Example 46, 2-amino-5-(3′-chloro-2′-fluorobiphenyl-3-yl)-3-methyl-5-[4-(pentafluoro-λ^6-sulfanyl)phenyl]-3,5-dihydro-4H-imidazol-4-one], the IC50 was 694 nM.
